Measurements from ChEMBL document CHEMBL4000252, “Discovery of N-(2-aminoethyl)-N-benzyloxyphenyl benzamides: New potent Trypanosoma brucei inhibitors” (Bioorg Med Chem, 2017).
Calls of active or inactive are those of the source. The rule behind the calls is not given here.

Assays:
HepG2 = assay: Cytotoxicity against human HepG2 cells assessed as growth inhibition after 48 hrs by Alamar blue assay; assay type: cell-based; conditions: hepg2, 48 h
[1] = test system: Trypanosoma brucei brucei; assay: Antiparasitic activity against Trypanosoma brucei brucei TREU667 infected in mouse assessed as decrease in parasitemia at 50 mg/kg, bid administered via oral gavage on day 21 to 34 post infection measured on day 34 by microscopic method; assay type: functional, organism-based
Liver = assay: Half life in human liver microsomes at 1.5 uM by LC-MS analysis; assay type: ADME, microsome
[2] = Cmax in mouse at 50 mg/kg, po by LC-MS analysis; assay type: ADME, organism-based; design: dose 50 mg/kg, route oral; conditions: in vivo
Cytochrome P450 3A4 = Cytochrome P450 3A4 (Homo sapiens, UniProt P08684); assay: Inhibition of human CYP3A4; assay type: ADME
[3] = test system: Trypanosoma brucei brucei; assay: Antiparasitic activity against Trypanosoma brucei brucei TREU667 infected in mouse assessed as decrease in parasitemia at 50 mg/kg, bid administered via oral gavage on day 21 to 34 post infection measured on day 36 by microscopic method; assay type: functional, organism-based
[4] = Ratio of drug level in brain to plasma in mouse at 5 mg/kg, ip after 1 hr by LC-MS analysis; assay type: ADME, organism-based
[5] = test system: Trypanosoma brucei brucei; assay: Antiparasitic activity against Trypanosoma brucei brucei BF427 assessed as growth inhibition after 48 hrs by Alamar blue assay; assay type: functional; conditions: BF427, 48 h
[6] = test system: Trypanosoma brucei rhodesiense; assay: Antiparasitic activity against Trypanosoma brucei rhodesiense STIB900 infected in Swiss-Webster mouse assessed as parasitemia rebound time at 50 mg/kg, bid administered via oral gavage from day 2 to 5 post infection by microscopic method; assay type: functional
[7] = test system: Trypanosoma brucei rhodesiense; assay: Antiparasitic activity against Trypanosoma brucei rhodesiense STIB900 infected in Swiss-Webster mouse assessed as cure rate at 50 mg/kg, bid administered via oral gavage from day 2 to 5 post infection measured after 60 days by microscopic method relative to control; assay type: functional
[8] = Cytotoxicity against human CRL8155 cells assessed as growth inhibition after 48 hrs by Alamar blue assay; assay type: cell-based; conditions: crl8155, 48 h
[9] = test system: Trypanosoma brucei brucei; assay: Antiparasitic activity against Trypanosoma brucei brucei TREU667 infected in mouse assessed as decrease in parasitemia at 50 mg/kg, bid administered via oral gavage on day 21 to 34 post infection measured on day 40 by microscopic method; assay type: functional, organism-based
[10] = AUC (0 to 8 hrs) in mouse at 50 mg/kg, po by LC-MS analysis; assay type: ADME, organism-based; design: dose 50 mg/kg, time < 8 hr, route oral; conditions: in vivo
[11] = test system: Trypanosoma brucei brucei; assay: Antiparasitic activity against Trypanosoma brucei brucei TREU667 infected in mouse assessed as decrease in parasitemia at 50 mg/kg, bid administered via oral gavage on day 21 to 34 post infection measured on day 35 by microscopic method; assay type: functional, organism-based
[12] = test system: Trypanosoma brucei rhodesiense; assay: Antiparasitic activity against Trypanosoma brucei rhodesiense STIB900 assessed as growth inhibition after 48 hrs by Alamar blue assay; assay type: functional; conditions: STIB900, 48 h

Cytochrome P450 3A4, sequence (P08684 whole entry): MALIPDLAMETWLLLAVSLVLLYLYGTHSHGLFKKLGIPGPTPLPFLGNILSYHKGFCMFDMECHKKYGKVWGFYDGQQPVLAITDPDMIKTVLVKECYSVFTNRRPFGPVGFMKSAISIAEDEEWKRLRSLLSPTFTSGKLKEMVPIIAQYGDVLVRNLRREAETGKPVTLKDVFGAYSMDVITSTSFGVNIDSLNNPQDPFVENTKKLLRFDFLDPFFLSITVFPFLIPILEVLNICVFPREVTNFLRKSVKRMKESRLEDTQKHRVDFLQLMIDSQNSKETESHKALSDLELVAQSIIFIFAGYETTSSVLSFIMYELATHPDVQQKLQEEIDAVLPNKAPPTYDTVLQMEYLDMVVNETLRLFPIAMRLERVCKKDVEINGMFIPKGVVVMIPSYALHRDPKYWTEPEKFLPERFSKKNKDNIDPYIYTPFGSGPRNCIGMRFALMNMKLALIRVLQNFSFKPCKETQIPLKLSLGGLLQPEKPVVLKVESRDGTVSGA

t1/2 (Liver): > 1 h
Cmax [2]: 1000 nM
IC50 (Cytochrome P450 3A4): 144 nM
BPR [4]: 0.23
EC50 [5]: 1 nM
AUC(0-t) at 8 h [10]: 5.58 µM·h
EC50 [12]: 2 nM
SMILES: CC(C)c1ccc(COc2ccc(N(CCN)C(=O)c3cccnc3C(F)(F)F)cc2)cc1.Cl
CC50 (HepG2): 3830 nM
Activity [1]: Active
Activity [3]: Active
Time [6]: 31 days
Activity [7]: 67 - 80%
CC50 [8]: 2030 nM
Activity [9]: inactive
Activity [11]: Active
